Data published in PMC10709440, “High-throughput ligand profile characterization in novel cell lines expressing seven heterologous insect olfactory receptors for the detection of volatile plant biomarkers” (Scientific Reports, 2023).
Values joined by “and” are separate entries in the source; they are usually repeats but may differ in a detail not shown here. Identical values can stand only once. Like-named read-outs stand apart in the source and are kept apart here.

Legend:
Drosophila OR85b = target: T1, Drosophila OR85b (Drosophila melanogaster, UniProt Q9VHQ7); assay: Calcium ion fluorescence (GCaMP6) assay, OR85b stable HEK293 cell line; assay type: cell-based; settings: for Average response: VUAA1-normalized response, mean of biological replicates
T1 construct: expressed in transfected cells
T1 sequence (Q9VHQ7 1-390): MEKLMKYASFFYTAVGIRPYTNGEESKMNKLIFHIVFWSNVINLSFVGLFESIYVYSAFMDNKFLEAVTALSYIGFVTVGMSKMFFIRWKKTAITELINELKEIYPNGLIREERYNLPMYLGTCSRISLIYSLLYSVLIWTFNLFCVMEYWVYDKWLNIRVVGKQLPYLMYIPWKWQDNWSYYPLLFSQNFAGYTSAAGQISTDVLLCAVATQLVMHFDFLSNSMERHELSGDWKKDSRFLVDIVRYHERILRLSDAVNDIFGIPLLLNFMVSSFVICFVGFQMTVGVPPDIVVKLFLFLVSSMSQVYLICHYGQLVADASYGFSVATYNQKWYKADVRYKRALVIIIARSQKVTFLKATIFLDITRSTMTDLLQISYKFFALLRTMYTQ
T1 sequence (Q9VNB5 1-486 partner): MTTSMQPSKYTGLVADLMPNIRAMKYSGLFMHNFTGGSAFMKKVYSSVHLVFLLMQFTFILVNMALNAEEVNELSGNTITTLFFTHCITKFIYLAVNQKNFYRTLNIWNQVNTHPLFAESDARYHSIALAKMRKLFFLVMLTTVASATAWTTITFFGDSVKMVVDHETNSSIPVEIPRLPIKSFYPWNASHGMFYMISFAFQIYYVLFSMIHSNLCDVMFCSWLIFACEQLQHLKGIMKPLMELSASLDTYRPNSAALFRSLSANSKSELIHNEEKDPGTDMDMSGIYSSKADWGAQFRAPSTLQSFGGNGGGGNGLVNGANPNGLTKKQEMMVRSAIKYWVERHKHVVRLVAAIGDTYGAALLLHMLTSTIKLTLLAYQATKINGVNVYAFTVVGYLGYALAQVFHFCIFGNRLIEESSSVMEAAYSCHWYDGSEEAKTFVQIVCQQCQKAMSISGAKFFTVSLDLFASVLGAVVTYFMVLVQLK
How it was run: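 HEK293 lines stably expressing each Drosophila OR with GCaMP6, doxycycline-induced (1 μg/mL) 48 or 72 h. Fluorescence recorded 5 s baseline then 30 s after VOC injection at pH 7.3; ΔF=(FMAX−F0)/F0, normalized to 50 µM VUAA1 response per line, triplicate wells averaged; concentration series 0.01–100 μM.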

OR10a = system: OR10a; design: method as in earlier work; settings: DoOR database value, ref DoOR, cited from earlier work
OR13a = system: OR13a; design: method as in earlier work; settings: DoOR database value, ref DoOR, cited from earlier work
OR47a = system: OR47a; design: method as in earlier work; settings: DoOR database value, ref DoOR, cited from earlier work
OR49b = system: OR49b; design: method as in earlier work; settings: DoOR database value, ref DoOR, cited from earlier work
OR71a = system: OR71a; design: method as in earlier work; settings: DoOR database value, ref DoOR, cited from earlier work
OR85b = system: OR85b; design: method as in earlier work; settings: DoOR database value, ref DoOR, cited from earlier work
OR98a = system: OR98a; design: method as in earlier work; settings: DoOR database value, ref DoOR, cited from earlier work
[1] = HEK293, read-out: OR85b response (VUAA1-normalized response)
[2] = ligand concentration 1 (unit not given), threshold 0.05, below shown as 0
[3] = ligand concentration 10 (unit not given), threshold 0.05, below shown as 0
[4] = ligand concentration 100 (unit not given), threshold 0.05, below shown as 0
[5] = HEK293, read-out: OR85b Average response (VUAA1-normalized)
[6] = VOC concentration 0.15 (unit not given)
[7] = VOC concentration 0.3 (unit not given)
[8] = VOC concentration 0.6 (unit not given)
[9] = VOC concentration 1.25 (unit not given)
[10] = VOC concentration 2.5 (unit not given)
[11] = VOC concentration 5 (unit not given)
[12] = VOC concentration 10 (unit not given)
[13] = VOC concentration 20 (unit not given)
[14] = VOC concentration 40 (unit not given)
[15] = VOC concentration 60 (unit not given)
[16] = VOC concentration 80 (unit not given)
[17] = VOC concentration 100 (unit not given)

## CC(=O)c1ccccc1 [acetophenone]
Drosophila OR85b; [1]
  activation at 1 µM: 0%
  activation at 10 µM: 0%
  activation at 100 µM: 0%
Drosophila OR85b; OR85b cell line, cc. 1 µM
  Average response: 0.00
Drosophila OR85b; OR85b cell line, cc. 10 µM
  Average response: 0.00
Drosophila OR85b; OR85b cell line, cc. 100 µM
  Average response: 0.00
Drosophila OR85b; [2]
  DF norm AVERAGE OR85b: 0
Drosophila OR85b; [3]
  DF norm AVERAGE OR85b: 0
Drosophila OR85b; [4]
  DF norm AVERAGE OR85b: 0
OR10a
  OR10a DoOR response: 0.64
OR13a
  OR13a DoOR response: 0.02
OR47a
  OR47a DoOR response: 0.11
OR49b
  OR49b DoOR response: 0.07
OR71a
  OR71a DoOR response: 0.05
OR85b
  OR85b DoOR response: 0.04
OR98a
  OR98a DoOR response: 0.21

## CCCCCC(C)=O [2-heptanone]
Drosophila OR85b; AVERAGE EC50, from average LOG EC50, N 5
  EC50: 68.9 µM
Drosophila OR85b; EC50 (fitted parameter), individual biological replicates
  EC50: 50.9 µM and 47.5 µM and 41.7 µM and 42.2 µM
Drosophila OR85b; EC50, AVERAGE, arithmetic average of 5 replicate EC50
  EC50: 110 µM
Drosophila OR85b; EC50, FITTED AVERAGE CURVE, fit to the average curve
  EC50: 72.2 µM
Drosophila OR85b; EC50, OR85b cell line, fitted Hill equation, Hill coefficient constrained to 1, maximal response max 1
  EC50: 68.9 µM
Drosophila OR85b; [5]
  activation at 1 µM: 4%
  activation at 10 µM: 20%
  activation at 100 µM: 55%
Drosophila OR85b; [1]
  activation at 1 µM: 0%
  activation at 10 µM: 20%
  activation at 100 µM: 55%
Drosophila OR85b; HEK293, read-out: VUAA1 normalized MAX response
  Emax: 72%
Drosophila OR85b; LOG EC50 (fitted parameter), individual biological replicates, OR85b D-R sheet
  EC50: 50.9 µM and 47.5 µM and 41.7 µM and 42.2 µM
Drosophila OR85b; LOG EC50, AVERAGE, average of 5 biological replicates
  EC50: 68.9 µM
Drosophila OR85b; OR85b cell line, cc. 1 µM
  Average response: 0.037
Drosophila OR85b; OR85b cell line, cc. 10 µM
  Average response: 0.20
Drosophila OR85b; OR85b cell line, cc. 100 µM
  Average response: 0.55
Drosophila OR85b; [6]
  response, AVERAGE: 0
  response, biological replicates: 0
Drosophila OR85b; [7]
  response, AVERAGE: 0
  response, biological replicates: 0
Drosophila OR85b; [8]
  response, AVERAGE: 0.02418
  response, biological replicates: 0 (3×) and 0.06045 (2×)
Drosophila OR85b; [9]
  response, AVERAGE: 0
  response, biological replicates: 0
Drosophila OR85b; [10]
  response, AVERAGE: 0
  response, biological replicates: 0
Drosophila OR85b; [11]
  response, AVERAGE: 0.05175
  response, biological replicates: 0 (2×) and 0.08029 and 0.08922 (2×)
Drosophila OR85b; [12]
  response, AVERAGE: 0.07565
  response, biological replicates: 0.1715 and 0 and 0.05971 and 0.07351 (2×)
Drosophila OR85b; [13]
  response, AVERAGE: 0.1574
  response, biological replicates: 0.2412 and 0.05753 and 0.1726 and 0.1579 (2×)
Drosophila OR85b; [14]
  response, AVERAGE: 0.2822
  response, biological replicates: 0.4423 and 0.101 and 0.2153 and 0.3264 (2×)
Drosophila OR85b; [15]
  response, AVERAGE: 0.3295
  response, biological replicates: 0.5597 and 0.152 and 0.2767
Drosophila OR85b; [16]
  response, AVERAGE: 0.3923
  response, biological replicates: 0.6627 and 0.1546 and 0.3278 and 0.4082 (2×)
Drosophila OR85b; [17]
  response, AVERAGE: 0.3199
  response, biological replicates: 0.2321 and 0.3319 and 0.3577 (2×)
Drosophila OR85b; average of 5 biological replicates
  AVERAGE MAX: 0.7284
Drosophila OR85b; concentration 1, normalized fluorescence change, values below 0.05 threshold given as 0
  DF norm AVERAGE OR85b: 0
Drosophila OR85b; concentration 10, normalized fluorescence change, values below 0.05 threshold given as 0
  DF norm AVERAGE OR85b: 0.1962
Drosophila OR85b; concentration 100, normalized fluorescence change, values below 0.05 threshold given as 0
  DF norm AVERAGE OR85b: 0.5508
Drosophila OR85b; fit to the average curve
  MAX, fitted average curve: 0.6682
Drosophila OR85b; individual biological replicates
  MAX (fitted parameter): 1 (2×) and 0.5003 and 0.5695 and 0.5722
OR10a
  OR10a DoOR response: 0.016
OR13a
  OR13a DoOR response: 0.26
OR47a
  OR47a DoOR response: 0.58
OR49b
  OR49b DoOR response: 0.011
OR71a
  OR71a DoOR response: 0.045
OR85b
  OR85b DoOR response: 0.65
OR98a
  OR98a DoOR response: 0.62

## CCOC(=O)c1ccccc1 [ethyl benzoate]
Drosophila OR85b; [1]
  activation at 1 µM: 0%
  activation at 10 µM: 0%
  activation at 100 µM: 0%
Drosophila OR85b; OR85b cell line, cc. 1 µM
  Average response: 0.0211
Drosophila OR85b; OR85b cell line, cc. 10 µM
  Average response: 0.0371
Drosophila OR85b; OR85b cell line, cc. 100 µM
  Average response: 0.0138
Drosophila OR85b; [2]
  DF norm AVERAGE OR85b: 0
Drosophila OR85b; [3]
  DF norm AVERAGE OR85b: 0
Drosophila OR85b; [4]
  DF norm AVERAGE OR85b: 0
OR10a
  OR10a DoOR response: 0.68
OR13a
  OR13a DoOR response: 0.043
OR47a
  OR47a DoOR response: 0.06
OR49b
  OR49b DoOR response: 0.002
OR71a
  OR71a DoOR response: 0.19
OR85b
  OR85b DoOR response: -0.014
OR98a
  OR98a DoOR response: 0.78

## COC(=O)c1ccccc1O [methyl salicylate]
Drosophila OR85b; [5]
  activation at 1 µM: 0%
  activation at 10 µM: 3%
  activation at 100 µM: 13%
Drosophila OR85b; OR85b cell line, VOC concentration 1 μM
  OR85b response (VUAA1-normalized) at 1 μM: 0.00
Drosophila OR85b; OR85b cell line, VOC concentration 10 μM
  OR85b response (VUAA1-normalized) at 10 μM: 0.00
Drosophila OR85b; OR85b cell line, VOC concentration 100 μM
  OR85b response (VUAA1-normalized) at 100 μM: 0.13
Drosophila OR85b; OR85b cell line, cc. 1 µM
  Average response: 0.00
Drosophila OR85b; OR85b cell line, cc. 10 µM
  Average response: 0.0263
Drosophila OR85b; OR85b cell line, cc. 100 µM
  Average response: 0.13
Drosophila OR85b; [2]
  DF norm AVERAGE OR85b: 0
Drosophila OR85b; [3]
  DF norm AVERAGE OR85b: 0
Drosophila OR85b; [4]
  DF norm AVERAGE OR85b: 0.1286
OR10a; OR10a
  OR10a DoOR response: 0.75
OR13a; OR13a
  OR13a DoOR response: 0.07
OR47a; OR47a
  OR47a DoOR response: -0.032
OR49b; OR49b
  OR49b DoOR response: 0.05
OR71a; OR71a
  OR71a DoOR response: 0.47
OR85b; OR85b
  OR85b DoOR response: 0.009
OR98a; OR98a
  OR98a DoOR response: 0.034
